# Source: ChEMBL document CHEMBL1201861, “Genomics of Drug Sensitity in Cancer screening data, Wellcome Trust Sanger Institute”
# Columns and labels:
# Test in all cases: cells
# Ca-Ski = format: functional, cell-based; settings: Homo sapiens;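 also: cell viability assay measuring inhibition of Ca-Ski cell growth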
# Description: SANGER: Inhibition of human Ca-Ski cell growth in a cell viability assay.
# NCI-H1838 = format: functional, cell-based, Homo sapiens; settings: Homo sapiens, NCI-H1838;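 also: growth inhibition of NCI-H1838 cells, determined with a cell viability readout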
# Description: SANGER: Inhibition of human NCI-H1838 cell growth in a cell viability assay.
# GCT = format: functional, cell-based, Homo sapiens; settings: Homo sapiens, GCT;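 also: GCT cell line proliferation inhibition, read out with a cell viability assay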
# Description: SANGER: Inhibition of human GCT cell growth in a cell viability assay.
# SW948 = format: functional, cell-based, Homo sapiens; settings: Homo sapiens, SW948;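 also: growth inhibition of SW948 cells, read out with a cell viability assay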
# Description: SANGER: Inhibition of human SW948 cell growth in a cell viability assay.
# A101D = format: functional, cell-based, Homo sapiens; settings: Homo sapiens, A101D;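 also: growth inhibition of the cell line, measured with a viability assay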
# Description: SANGER: Inhibition of human A101D cell growth in a cell viability assay.
# KALS-1 = format: functional, cell-based, Homo sapiens; settings: Homo sapiens, KALS-1;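 also: growth inhibition of KALS-1 cells, determined with a cell viability assay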
# Description: SANGER: Inhibition of human KALS-1 cell growth in a cell viability assay.
# HT1197 = format: functional, cell-based, Homo sapiens, HT-1197; settings: Homo sapiens, HT1197
# Description: SANGER: Inhibition of human HT-1197 cell growth in a cell viability assay.
# LB373-MEL-D = format: functional, cell-based, Homo sapiens; settings: Homo sapiens, LB373-MEL-D;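 also: growth inhibition of the cell line, read out in a cell viability assay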
# Description: SANGER: Inhibition of human LB373-MEL-D cell growth in a cell viability assay.
# NCI-H2087 = format: functional, cell-based, Homo sapiens; settings: Homo sapiens, NCI-H2087;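 also: growth inhibition determined with a cell viability readout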
# Description: SANGER: Inhibition of human NCI-H2087 cell growth in a cell viability assay.
# NB13 = format: functional, cell-based, Homo sapiens; settings: Homo sapiens, NB13;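 also: cell viability readout measuring growth inhibition of human NB13 cells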
# Description: SANGER: Inhibition of human NB13 cell growth in a cell viability assay.
# BT-20 = format: functional, cell-based, Homo sapiens; settings: Homo sapiens, BT-20;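 also: cell viability assay measuring suppression of growth in human BT-20 cells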
# Description: SANGER: Inhibition of human BT-20 cell growth in a cell viability assay.
# BXPC-3 = format: functional, cell-based, Homo sapiens; settings: Homo sapiens, BXPC-3;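 also: growth inhibition of human BxPC-3 cells, read out by a cell viability assay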
# Description: SANGER: Inhibition of human BxPC-3 cell growth in a cell viability assay.
# NB12 = format: functional, cell-based, Homo sapiens; settings: Homo sapiens, NB12;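 also: growth inhibition of human NB12 cells, read out by a cell viability assay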
# Description: SANGER: Inhibition of human NB12 cell growth in a cell viability assay.
# LAMA-84 = format: functional, cell-based; settings: Homo sapiens;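 also: growth inhibition of LAMA-84 cells, read out with a cell viability assay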
# Description: SANGER: Inhibition of human LAMA-84 cell growth in a cell viability assay.
# BHY = format: functional, cell-based, Homo sapiens; settings: Homo sapiens, BHY;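 also: cell growth inhibition read out by a viability assay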
# Description: SANGER: Inhibition of human BHY cell growth in a cell viability assay.
# SW626 = format: functional, cell-based, Homo sapiens; settings: Homo sapiens, SW626;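 also: growth inhibition of SW626 cells, measured with a cell viability assay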
# Description: SANGER: Inhibition of human SW626 cell growth in a cell viability assay.
# D-263MG = format: functional, cell-based, Homo sapiens; settings: Homo sapiens, D-263MG
# Description: SANGER: Inhibition of human D-263MG cell growth in a cell viability assay.
# UACC-893 = format: functional, cell-based, Homo sapiens; settings: Homo sapiens, UACC-893
# Description: SANGER: Inhibition of human UACC-893 cell growth in a cell viability assay.
# SAS = format: functional, cell-based, Homo sapiens; settings: Homo sapiens, SAS;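 also: growth inhibition of SAS cells, read out with a cell viability assay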
# Description: SANGER: Inhibition of human SAS cell growth in a cell viability assay.
# MCF7 = format: functional, cell-based, Homo sapiens; settings: Homo sapiens, MCF7;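 also: growth inhibition of human MCF7 cells, read out with a cell viability assay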
# Description: SANGER: Inhibition of human MCF7 cell growth in a cell viability assay.
# YKG-1 = format: functional, cell-based, Homo sapiens; settings: Homo sapiens, YKG-1;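 also: cell growth inhibition, read out with a viability assay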
# Description: SANGER: Inhibition of human YKG-1 cell growth in a cell viability assay.
# NCI-H1563 = format: functional, cell-based, Homo sapiens; settings: Homo sapiens, NCI-H1563;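 also: growth inhibition of human NCI-H1563 cells, read out with a cell viability assay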
# Description: SANGER: Inhibition of human NCI-H1563 cell growth in a cell viability assay.
# Becker = format: functional, cell-based, Homo sapiens; settings: Homo sapiens, Becker;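 also: growth inhibition of Becker cells, read out with a cell viability assay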
# Description: SANGER: Inhibition of human Becker cell growth in a cell viability assay.
# CTV-1 = format: functional, cell-based; settings: Homo sapiens;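 also: growth inhibition of the cell line, read out with a cell viability assay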
# Description: SANGER: Inhibition of human CTV-1 cell growth in a cell viability assay.
# SW684 = format: functional, cell-based, Homo sapiens; settings: Homo sapiens, SW684;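 also: growth inhibition of human SW684 cells, measured by a cell viability assay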
# Description: SANGER: Inhibition of human SW684 cell growth in a cell viability assay.
# KYSE-520 cell line = format: functional, cell-based, Homo sapiens; settings: Homo sapiens, KYSE-520;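 also: growth inhibition of human KYSE-520 cells, read out with a viability assay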
# Description: SANGER: Inhibition of human KYSE-520 cell growth in a cell viability assay.
# NCI-H1395 = format: functional, cell-based, Homo sapiens; settings: Homo sapiens, NCI-H1395;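 also: cell viability assay read-out quantifying reduced proliferation of human NCI-H1395 cells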
# Description: SANGER: Inhibition of human NCI-H1395 cell growth in a cell viability assay.
# OS-RC-2 = format: functional, cell-based, Homo sapiens; settings: Homo sapiens, OS-RC-2;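 also: growth inhibition of human OS-RC-2 cells, measured by a cell viability assay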
# Description: SANGER: Inhibition of human OS-RC-2 cell growth in a cell viability assay.
# HCC1806 = format: functional, cell-based, Homo sapiens; settings: Homo sapiens, HCC1806;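 also: growth inhibition of the cancer cell line, determined with a cell viability assay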
# Description: SANGER: Inhibition of human HCC1806 cell growth in a cell viability assay.
# SW1783 = format: functional, cell-based; settings: Homo sapiens;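 also: cell growth inhibition measured with a viability assay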
# Description: SANGER: Inhibition of human SW1783 cell growth in a cell viability assay.
# HEC-1 = format: functional, cell-based, Homo sapiens; settings: Homo sapiens, HEC-1;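 also: growth inhibition of the cell line, read out with a cell viability assay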
# Description: SANGER: Inhibition of human HEC-1 cell growth in a cell viability assay.
# HT = format: functional, cell-based; settings: Homo sapiens
# Description: SANGER: Inhibition of human HT cell growth in a cell viability assay.
# DMS-114 = format: functional, cell-based, Homo sapiens; settings: Homo sapiens, DMS-114
# KP-4 = format: functional, cell-based, Homo sapiens; settings: Homo sapiens, KP-4;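 also: human KP-4 cells, with growth inhibition read out through a cell viability assay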
# Description: SANGER: Inhibition of human KP-4 cell growth in a cell viability assay.
# SW 962 = format: functional, cell-based, Homo sapiens; settings: Homo sapiens, SW 962;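 also: growth inhibition of human SW962 cells, read out by a cell viability assay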
# Description: SANGER: Inhibition of human SW962 cell growth in a cell viability assay.
# IA-LM = format: functional, cell-based, Homo sapiens; settings: Homo sapiens, IA-LM;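 also: cell viability assay measuring growth inhibition of human IA-LM cells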
# Description: SANGER: Inhibition of human IA-LM cell growth in a cell viability assay.
# SK-MEL-24 = format: functional, cell-based; settings: Homo sapiens;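 also: growth inhibition read out by a cell viability assay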
# Description: SANGER: Inhibition of human SK-MEL-24 cell growth in a cell viability assay.
# NEC8 = format: functional, cell-based, Homo sapiens; settings: Homo sapiens, NEC8;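 also: growth inhibition of human NEC8 cells, read out by a cell viability assay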
# Description: SANGER: Inhibition of human NEC8 cell growth in a cell viability assay.
# MG-63 = format: functional, cell-based, Homo sapiens; settings: Homo sapiens, MG-63;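 also: growth inhibition of human MG-63 cells, read out with a cell viability assay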
# Description: SANGER: Inhibition of human MG-63 cell growth in a cell viability assay.
# NCI-H2126 = format: functional, cell-based, Homo sapiens; settings: Homo sapiens, NCI-H2126;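 also: growth inhibition of the cancer cell line, determined with a cell viability readout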
# Description: SANGER: Inhibition of human NCI-H2126 cell growth in a cell viability assay.
# ETK-1 = format: functional, cell-based, Homo sapiens; settings: Homo sapiens, ETK-1;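 also: growth inhibition of human ETK-1 cells, read out with a cell viability assay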
# Description: SANGER: Inhibition of human ETK-1 cell growth in a cell viability assay.
# SK-N-FI = format: functional, cell-based, Homo sapiens; settings: Homo sapiens, SK-N-FI;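 also: cell viability assay measuring growth inhibition of human SK-N-FI cells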
# Description: SANGER: Inhibition of human SK-N-FI cell growth in a cell viability assay.
# SK-NEP-1 = format: functional, cell-based; settings: Homo sapiens;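 also: growth inhibition of human SK-NEP-1 cells, read out by a cell viability assay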
# Description: SANGER: Inhibition of human SK-NEP-1 cell growth in a cell viability assay.
# 5637 = format: functional, cell-based, Homo sapiens; settings: Homo sapiens
# Description: SANGER: Inhibition of human 5637 cell growth in a cell viability assay.
# Lu-65 = format: functional, cell-based; settings: Homo sapiens;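 also: growth inhibition of Lu-65 cancer cells, read out by a cell viability assay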
# Description: SANGER: Inhibition of human LU-65 cell growth in a cell viability assay.
# NCI-H2122 = format: functional, cell-based, Homo sapiens; settings: Homo sapiens, NCI-H2122;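 also: growth inhibition of the cells, read out with a cell viability assay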
# Description: SANGER: Inhibition of human NCI-H2122 cell growth in a cell viability assay.
# SK-MEL-28 = format: functional, cell-based; settings: Homo sapiens;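 also: growth inhibition of human SK-MEL-28 cells, read out with a cell viability assay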
# Description: SANGER: Inhibition of human SK-MEL-28 cell growth in a cell viability assay.
# CTB-1 = format: functional, cell-based; settings: Homo sapiens
# Description: SANGER: Inhibition of human CTB-1 cell growth in a cell viability assay.
# G-401 = format: functional, cell-based, Homo sapiens; settings: Homo sapiens, G-401
# Description: SANGER: Inhibition of human G-401 cell growth in a cell viability assay.
# ALL-PO = format: functional, cell-based; settings: Homo sapiens;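 also: growth inhibition of ALL-PO cells, read out by a cell viability assay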
# Description: SANGER: Inhibition of human ALL-PO cell growth in a cell viability assay.
# LB2241-RCC = format: functional, cell-based, Homo sapiens; settings: Homo sapiens, LB2241-RCC;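 also: cell viability assay measuring how strongly the cultured human renal carcinoma line is prevented from growing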
# Description: SANGER: Inhibition of human LB2241-RCC cell growth in a cell viability assay.
# NB69 = format: functional, cell-based, Homo sapiens; settings: Homo sapiens, NB69;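 also: growth inhibition of NB69 cells, determined by a cell viability assay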
# Description: SANGER: Inhibition of human NB69 cell growth in a cell viability assay.
smiles,measurement,setting,value
Nc1ccn([C@@H]2O[C@H](CO)[C@@H](O)[C@@H]2O)c(=O)n1 [CYTARABINE],IC50,Ca-Ski,> 2000 nM
same,IC50,NCI-H1838,> 2000 nM
same,IC50,GCT,856 nM
same,IC50,SW948,> 2000 nM
same,IC50,A101D,> 2000 nM
same,IC50,KALS-1,> 2000 nM
same,IC50,HT1197,> 2000 nM
same,IC50,LB373-MEL-D,> 2000 nM
same,IC50,NCI-H2087,> 2000 nM
same,IC50,NB13,> 2000 nM
same,IC50,BT-20,> 2000 nM
same,IC50,BXPC-3,> 2000 nM
same,IC50,NB12,> 2000 nM
same,IC50,LAMA-84,335 nM
same,IC50,BHY,898 nM
same,IC50,SW626,> 2000 nM
same,IC50,D-263MG,1170 nM
same,IC50,UACC-893,> 2000 nM
same,IC50,SAS,108 nM
same,IC50,MCF7,> 2000 nM
same,IC50,YKG-1,298 nM
same,IC50,NCI-H1563,> 2 µM
same,IC50,Becker,1100 nM
same,IC50,CTV-1,84.7 nM
same,IC50,SW684,> 2000 nM
same,IC50,KYSE-520 cell line,> 2000 nM
same,IC50,NCI-H1395,> 2000 nM
same,IC50,OS-RC-2,1580 nM
same,IC50,HCC1806,191 nM
same,IC50,SW1783,> 2000 nM
same,IC50,HEC-1,1790 nM
same,IC50,HT,> 2 µM
same,IC50,DMS-114,1680 nM
same,IC50,KP-4; read-out: IC50,536 nM
same,IC50,SW 962,> 2000 nM
same,IC50,IA-LM,> 2000 nM
same,IC50,SK-MEL-24,> 2000 nM
same,IC50,NEC8,134 nM
same,IC50,MG-63,> 2000 nM
same,IC50,NCI-H2126,> 2000 nM
same,IC50,ETK-1,> 2000 nM
same,IC50,SK-N-FI,> 2000 nM
same,IC50,SK-NEP-1,> 2000 nM
same,IC50,5637,501 nM
same,IC50,Lu-65,> 2000 nM
same,IC50,NCI-H2122,430 nM
same,IC50,SK-MEL-28,799 nM
same,IC50,CTB-1,34.4 nM
same,IC50,G-401,758 nM
same,IC50,ALL-PO,287 nM
same,IC50,LB2241-RCC,55.3 nM
same,IC50,NB69,79.5 nM
CC(=O)O[C@@]12CO[C@@H]1C[C@H](O)[C@@]1(C)C(=O)[C@H](O)C3=C(C)[C@@H](OC(=O)[C@H](O)[C@@H](NC(=O)OC(C)(C)C)c4ccccc4)C[C@@](O)([C@@H](OC(=O)c4ccccc4)[C@H]21)C3(C)C [DOCETAXEL],IC50,Ca-Ski,0.728 nM
same,IC50,NCI-H1838,> 10 nM
same,IC50,GCT,1.8 nM
same,IC50,SW948,> 10 nM
same,IC50,A101D,> 10 nM
same,IC50,KALS-1,1.81 nM
same,IC50,HT1197,> 10 nM
same,IC50,LB373-MEL-D,> 10 nM
same,IC50,NCI-H2087,7.48 nM
same,IC50,NB13,1.07 nM
same,IC50,BT-20,3.76 nM
same,IC50,BXPC-3,2.51 nM
same,IC50,NB12,> 10 nM
same,IC50,LAMA-84,> 10 nM
same,IC50,BHY,2.16 nM
same,IC50,SW626,6.24 nM
same,IC50,D-263MG,0.947 nM
same,IC50,UACC-893,> 10 nM
same,IC50,SAS,1.34 nM
same,IC50,MCF7,1.61 nM
same,IC50,YKG-1,0.707 nM
same,IC50,NCI-H1563,> 0.01 µM
same,IC50,Becker,1.83 nM
same,IC50,CTV-1,3.37 nM
same,IC50,SW684,> 10 nM
same,IC50,KYSE-520 cell line,7 nM
same,IC50,NCI-H1395,3.96 nM
same,IC50,OS-RC-2,> 10 nM
same,IC50,HCC1806,1.18 nM
same,IC50,SW1783,5.7 nM
same,IC50,HEC-1,3.03 nM
same,IC50,HT,> 0.01 µM
same,IC50,DMS-114,6.96 nM
same,IC50,KP-4,1.56 nM
same,IC50,SW 962,2.93 nM
same,IC50,IA-LM,> 10 nM
same,IC50,SK-MEL-24,> 10 nM
same,IC50,NEC8,0.561 nM
same,IC50,MG-63,1.51 nM
same,IC50,NCI-H2126,7.73 nM
same,IC50,ETK-1,0.558 nM
same,IC50,SK-N-FI,> 10 nM
same,IC50,SK-NEP-1,1.76 nM
same,IC50,5637,0.143 nM
same,IC50,Lu-65,> 10 nM
same,IC50,NCI-H2122,1.84 nM
same,IC50,SK-MEL-28,2.03 nM
same,IC50,CTB-1,1.92 nM
same,IC50,G-401,1.27 nM
same,IC50,ALL-PO,8.6 nM
same,IC50,LB2241-RCC,5.31 nM
same,IC50,NB69,6.29 nM
COc1cc([C@@H]2c3cc4c(cc3[C@@H](O[C@@H]3O[C@@H]5CO[C@@H](C)O[C@H]5[C@H](O)[C@H]3O)[C@H]3COC(=O)[C@H]23)OCO4)cc(OC)c1O [ETOPOSIDE],IC50,Ca-Ski,2330 nM
same,IC50,NCI-H1838,> 16000 nM
same,IC50,GCT,3270 nM
same,IC50,SW948,> 16000 nM
same,IC50,A101D,1200 nM
same,IC50,KALS-1,10300 nM
same,IC50,HT1197,> 16000 nM
same,IC50,LB373-MEL-D,> 16000 nM
same,IC50,NCI-H2087,763 nM
same,IC50,NB13,2760 nM
same,IC50,BT-20,4580 nM
same,IC50,BXPC-3,> 16000 nM
same,IC50,NB12,1080 nM
same,IC50,LAMA-84,9210 nM
same,IC50,BHY,1530 nM
same,IC50,SW626,8900 nM
same,IC50,D-263MG,> 16000 nM
same,IC50,UACC-893,> 16000 nM
same,IC50,SAS,1270 nM
same,IC50,MCF7,831 nM
same,IC50,YKG-1,1230 nM
same,IC50,NCI-H1563,7.07 µM
same,IC50,Becker,11800 nM
same,IC50,CTV-1,410 nM
same,IC50,SW684,> 16000 nM
same,IC50,KYSE-520 cell line,> 16000 nM
same,IC50,NCI-H1395,> 16000 nM
same,IC50,OS-RC-2,11200 nM
same,IC50,HCC1806,4730 nM
same,IC50,SW1783,3060 nM
same,IC50,HEC-1,2370 nM
same,IC50,HT,15.3 µM
same,IC50,DMS-114,> 16000 nM
same,IC50,KP-4; read-out: IC50,416 nM
same,IC50,SW 962,> 16000 nM
same,IC50,IA-LM,3440 nM
same,IC50,SK-MEL-24,> 16000 nM
same,IC50,NEC8,539 nM
same,IC50,MG-63,1180 nM
same,IC50,NCI-H2126,10400 nM
same,IC50,ETK-1,2750 nM
same,IC50,SK-N-FI,> 16000 nM
same,IC50,SK-NEP-1,1900 nM
same,IC50,5637,867 nM
same,IC50,Lu-65,> 16000 nM
same,IC50,NCI-H2122,5390 nM
same,IC50,SK-MEL-28,> 16000 nM
same,IC50,CTB-1,1690 nM
same,IC50,G-401,1440 nM
same,IC50,ALL-PO,690 nM
same,IC50,LB2241-RCC,> 16000 nM
same,IC50,NB69,1090 nM
